The assay deals with Boophilus microplus, Biarra strain (resistant). Briefly: In-vitro test for ovicidal effect on ticks (Biarra strain). Here is the method: In-vitro Test for Ovicidal Effect on Ticks
The emulsion concentrate so obtained is diluted with water to the application concentration desired in each case.
After immersion of, in each case, 10 female specimens of the various strains of ticks, the individual ticks are transferred to plastic dishes, the bottom of each of which is covered with a disc of filter paper.

Setting [1] is: Table 1b, concentration giving 100% inhibition.
Where [2] appears, read: Table 1b, concentration giving >50% inhibition.
[3] abbreviates: Table 2, concentration giving 100% inhibition.
The mark [4] stands for this setting: Table 2, concentration giving >50% inhibition.

`CCN1CCCC1=Nc1ccc(Cl)cc1Cl` [Compound 21]: the “Ovicidal effect: 100% inhibition with the stated concentration of active compound” value (“Ovicidal effect: 100% inhibition” below) under setting [1] is recorded as 0.1 % by weight. Also, the “Ovicidal effect: >50% inhibition with the stated concentration of active compound” value (“Ovicidal effect: >50% inhibition” below) under setting [2] came out at 0.01 % by weight.
In the case of `CCN1CCCC1=Nc1ccc(Br)cc1Br` [Compound 261], under setting [3], the “Ovicidal effect: 100% inhibition” value came out at 0.1 % by weight. In addition, the “Ovicidal effect: >50% inhibition” value under setting [4] is given as 0.05 % by weight.
Turning to `CC(C)N1CCCC1=Nc1ccc(Cl)c(Cl)c1` [Compound 121], the “Ovicidal effect: 100% inhibition” value under setting [1] was found to be 0.1 % by weight. Also, the “Ovicidal effect: >50% inhibition” value under setting [2] was determined as 0.03 % by weight.
Taken in the same sequence, the figures for `CC(C)CN1CCCC1=Nc1ccc(Cl)c(Cl)c1` [Compound 111] were 0.1 % by weight and 0.03 % by weight.
With `CCN1C(=Nc2ccc(Cl)c(Cl)c2)CCC1C` (stereo not drawn) [Compound 51], under setting [1], the “Ovicidal effect: 100% inhibition” value worked out at 0.1 % by weight. In addition, the “Ovicidal effect: >50% inhibition” value under setting [2] came to 0.03 % by weight.
As for `CC1CCC(=Nc2ccc(Cl)c(Cl)c2)N1C` (stereo not drawn) [Compound 201], the “Ovicidal effect: 100% inhibition” value under setting [1] was found to be 0.3 % by weight. Further, the “Ovicidal effect: >50% inhibition” value under setting [2] was 0.1 % by weight.
With `CCCN1CCCC1=Nc1ccc(Br)cc1Cl` [Compound 321], under setting [3], the “Ovicidal effect: 100% inhibition” value turned out to be 0.3 % by weight. Also, the “Ovicidal effect: >50% inhibition” value under setting [4] amounted to 0.1 % by weight.
On to `C=CCN1CCCC1=Nc1ccc(F)c(Br)c1` [Compound 471], for which, under setting [3], the “Ovicidal effect: 100% inhibition” value turned out to be 0.1 % by weight. The “Ovicidal effect: >50% inhibition” value under setting [4] was determined as 0.08 % by weight.
In the case of `C=CCN1CCCC1=Nc1ccc(Br)cc1Br` [Compound 281], under setting [3], the “Ovicidal effect: 100% inhibition” value stood at 0.1 % by weight. The “Ovicidal effect: >50% inhibition” value under setting [4] worked out at 0.03 % by weight.
Regarding `CN1CCCC1=Nc1cc(Cl)c(Cl)cc1Cl` [Compound 131], the “Ovicidal effect: 100% inhibition” value under setting [1] is listed as 0.03 % by weight. Further, the “Ovicidal effect: >50% inhibition” value under setting [2] stood at 0.01 % by weight.
As for `CCCCN1CCCC1=Nc1ccc(Br)cc1Cl` [Compound 331], the “Ovicidal effect: 100% inhibition” value under setting [3] is recorded as 0.3 % by weight. The “Ovicidal effect: >50% inhibition” value under setting [4] is recorded as 0.1 % by weight.
Regarding `Cc1cc(Cl)ccc1N=C1CCCN1C` [Compound 141], the “Ovicidal effect: 100% inhibition” value under setting [1] is reported as 0.3 % by weight. For the same compound, the “Ovicidal effect: >50% inhibition” value under setting [2] is given as 0.1 % by weight.
Take `CCCN1CCCC1=Nc1ccc(Cl)cc1Br` [Compound 361]: the “Ovicidal effect: 100% inhibition” value under setting [3] is listed as 0.1 % by weight. Further, under setting [4], the “Ovicidal effect: >50% inhibition” value worked out at 0.03 % by weight.
For `CN1CCCC1=Nc1ccc(Br)cc1Cl` [Compound 301], under setting [3], the “Ovicidal effect: 100% inhibition” value is on record as 0.1 % by weight. Further, the “Ovicidal effect: >50% inhibition” value under setting [4] is reported as 0.05 % by weight.
Taken in the same sequence, the figures for `C=CCN1CCCC1=Nc1ccc(Cl)cc1Br` [Compound 451] were 0.1 % by weight and 0.01 % by weight.
In the same order, the values of `C=CCN1CCCC1=Nc1ccc(Br)cc1CC` [Compound 441] are 0.3 % by weight and 0.1 % by weight.
On to `C=CCN1CCCC1=Nc1ccc(Br)c(Cl)c1` [Compound 411], for which the “Ovicidal effect: 100% inhibition” value under setting [3] came out at 0.3 % by weight. Also, the “Ovicidal effect: >50% inhibition” value under setting [4] amounted to 0.1 % by weight.
Regarding `CC(C)(C)N1CCCC1=Nc1ccc(Cl)cc1Cl` [Compound 181], the “Ovicidal effect: 100% inhibition” value under setting [1] amounted to 0.3 % by weight. Under setting [2], the “Ovicidal effect: >50% inhibition” value was 0.1 % by weight.
On to `CCCN1CCCC1=Nc1ccc(Cl)c(Cl)c1` [Compound 61], for which, under setting [1], the “Ovicidal effect: 100% inhibition” value is given as 0.03 % by weight. The “Ovicidal effect: >50% inhibition” value under setting [2] was found to be 0.01 % by weight.
As for `CCCCN1CCCC1=Nc1ccc(Br)cc1Br` [Compound 291], under setting [3], the “Ovicidal effect: 100% inhibition” value is recorded as 0.3 % by weight. The “Ovicidal effect: >50% inhibition” value under setting [4] was determined as 0.1 % by weight.
Consider `CC(C)N1CCCC1=Nc1ccc(Cl)cc1Cl` [Compound 221], for which the “Ovicidal effect: 100% inhibition” value under setting [1] is listed as 0.1 % by weight. Moreover, the “Ovicidal effect: >50% inhibition” value under setting [2] was found to be 0.03 % by weight.
In the case of `CCCCN1CCCC1=Nc1ccc(Cl)cc1Cl` [Compound 161], the “Ovicidal effect: 100% inhibition” value under setting [1] was 0.03 % by weight. The “Ovicidal effect: >50% inhibition” value under setting [2] is reported as 0.01 % by weight.
As to `Cc1cc(Cl)ccc1N=C1CCCN1CC(C)C` [Compound 101], the “Ovicidal effect: 100% inhibition” value under setting [1] is on record as 0.1 % by weight. For the same compound, under setting [2], the “Ovicidal effect: >50% inhibition” value was determined as 0.05 % by weight.
Turning to `CN1CCCC1=Nc1ccc(Cl)c(Cl)c1` [Compound 191], the “Ovicidal effect: 100% inhibition” value under setting [1] stood at 0.3 % by weight. For the same compound, the “Ovicidal effect: >50% inhibition” value under setting [2] is on record as 0.1 % by weight.
`CN1CCCC1=Nc1ccc(F)cc1Br` [Compound 381]: the “Ovicidal effect: 100% inhibition” value under setting [3] worked out at 0.3 % by weight. Also, the “Ovicidal effect: >50% inhibition” value under setting [4] turned out to be 0.1 % by weight.
As to `CC(C)CN1CCCC1=Nc1ccc(Cl)cc1Cl` [Compound 171], under setting [1], the “Ovicidal effect: 100% inhibition” value was 0.1 % by weight. Further, the “Ovicidal effect: >50% inhibition” value under setting [2] was determined as 0.03 % by weight.
For the compound `Cc1cc(Cl)ccc1N=C1CCCN1C(C)(C)C` [Compound 231], the “Ovicidal effect: 100% inhibition” value under setting [1] was 0.3 % by weight. Under setting [2], the “Ovicidal effect: >50% inhibition” value turned out to be 0.1 % by weight.
As for `CCCN1CCCC1=Nc1ccc(Br)cc1Br` [Compound 271], under setting [3], the “Ovicidal effect: 100% inhibition” value came to 0.3 % by weight. Further, the “Ovicidal effect: >50% inhibition” value under setting [4] turned out to be 0.2 % by weight.
In the same order, the values of `CCN1CCCC1=Nc1ccc(Cl)cc1Br` [Compound 351] are 0.1 % by weight and 0.03 % by weight.
For `CCCN1CCCC1=Nc1ccc(Cl)cc1Cl` [Compound 91], the “Ovicidal effect: 100% inhibition” value under setting [1] came out at 0.03 % by weight. Also, under setting [2], the “Ovicidal effect: >50% inhibition” value worked out at 0.01 % by weight.
In the case of `C=CCN1CCCC1=Nc1ccc(Br)cc1C` [Compound 431], under setting [3], the “Ovicidal effect: 100% inhibition” value was 0.1 % by weight. For the same compound, the “Ovicidal effect: >50% inhibition” value under setting [4] was found to be 0.03 % by weight.
Taken in the same sequence, the figures for `CN1CCCC1=Nc1ccc(Br)cc1Br` [Compound 251] were 0.1 % by weight and 0.03 % by weight.
As for `CCCCN1CCCC1=Nc1ccc(Cl)cc1C` [Compound 151], the “Ovicidal effect: 100% inhibition” value under setting [1] was 0.3 % by weight. Further, the “Ovicidal effect: >50% inhibition” value under setting [2] is on record as 0.1 % by weight.
Take `CN1CCCC1=Nc1ccc(Cl)cc1Br` [Compound 341]: the “Ovicidal effect: 100% inhibition” value under setting [3] is recorded as 0.1 % by weight. Besides, the “Ovicidal effect: >50% inhibition” value under setting [4] is listed as 0.03 % by weight.
Regarding `CCCCN1CCCC1=Nc1ccc(Br)c(Cl)c1` [Compound 421], the “Ovicidal effect: 100% inhibition” value under setting [3] stood at 0.3 % by weight. In addition, the “Ovicidal effect: >50% inhibition” value under setting [4] is listed as 0.2 % by weight.
On to `CCN1CCCC1=Nc1cc(Cl)c(Cl)cc1Cl` [Compound 31], for which the “Ovicidal effect: 100% inhibition” value under setting [1] was 0.3 % by weight. The “Ovicidal effect: >50% inhibition” value under setting [2] is on record as 0.1 % by weight.
Turning to `CCN1CCCC1=Nc1ccc(Br)cc1Cl` [Compound 311], the “Ovicidal effect: 100% inhibition” value under setting [3] is listed as 0.1 % by weight. In addition, under setting [4], the “Ovicidal effect: >50% inhibition” value worked out at 0.08 % by weight.
Regarding `CCCCN1CCCC1=Nc1ccc(Cl)cc1Br` [Compound 371], the “Ovicidal effect: 100% inhibition” value under setting [3] amounted to 0.03 % by weight. In addition, under setting [4], the “Ovicidal effect: >50% inhibition” value came out at 0.01 % by weight.
For the compound `CCN1CCCC1=Nc1ccc(Cl)c(Cl)c1` [Compound 81], the “Ovicidal effect: 100% inhibition” value under setting [1] is on record as 0.3 % by weight. The “Ovicidal effect: >50% inhibition” value under setting [2] stood at 0.1 % by weight.
On to `CCCCN1CCCC1=Nc1ccc(Br)cc1C` [Compound 461], for which the “Ovicidal effect: 100% inhibition” value under setting [3] was 0.3 % by weight. For the same compound, the “Ovicidal effect: >50% inhibition” value under setting [4] was 0.2 % by weight.
Taken in the same sequence, the figures for `CCN1CCCC1=Nc1ccc(Br)c(Cl)c1` [Compound 401] were 0.1 % by weight and 0.08 % by weight.
Regarding `CCCN1CCCC1=Nc1ccc(F)cc1Br` [Compound 391], the “Ovicidal effect: 100% inhibition” value under setting [3] amounted to 0.03 % by weight. The “Ovicidal effect: >50% inhibition” value under setting [4] was 0.02 % by weight.
